Columns and labels:
[1] = target: Serine/threonine-protein kinase PLK1 (Homo sapiens, UniProt P53350); assay: Inhibition of human PLK1 incubated for 40 mins in presence of [gamma-33P]ATP by scintillation counting method
Wee1-like protein kinase = Wee1-like protein kinase (Homo sapiens, UniProt P30291); assay: Inhibition of human WEE1 using LSNLYHQGKFLQTFCGSPLYRRR peptide as substrate incubated for 40 mins in presence of [gamma-33P]ATP by scintillation counting method
[2] = Oral bioavailability in CD-1 mouse at 10 mg/kg; type: ADME, organism-based; conditions: in vivo

Wee1-like protein kinase, sequence (P30291 whole entry): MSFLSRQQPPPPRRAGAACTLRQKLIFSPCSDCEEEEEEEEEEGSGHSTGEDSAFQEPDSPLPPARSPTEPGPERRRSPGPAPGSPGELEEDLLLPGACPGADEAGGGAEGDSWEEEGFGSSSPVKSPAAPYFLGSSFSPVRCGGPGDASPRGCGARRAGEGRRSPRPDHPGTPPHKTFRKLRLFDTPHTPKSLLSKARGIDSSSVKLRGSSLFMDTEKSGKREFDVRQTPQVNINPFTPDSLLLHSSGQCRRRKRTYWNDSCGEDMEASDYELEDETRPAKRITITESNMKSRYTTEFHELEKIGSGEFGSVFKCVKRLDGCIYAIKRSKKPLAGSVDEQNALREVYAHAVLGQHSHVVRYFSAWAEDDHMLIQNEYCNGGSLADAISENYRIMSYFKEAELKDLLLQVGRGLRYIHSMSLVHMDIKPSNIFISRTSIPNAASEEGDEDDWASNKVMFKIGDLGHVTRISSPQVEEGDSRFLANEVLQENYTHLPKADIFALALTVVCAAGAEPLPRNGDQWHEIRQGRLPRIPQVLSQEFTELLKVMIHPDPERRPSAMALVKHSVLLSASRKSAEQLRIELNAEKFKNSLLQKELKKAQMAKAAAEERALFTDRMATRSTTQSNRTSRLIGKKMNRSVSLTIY
Serine/threonine-protein kinase PLK1, sequence (P53350 whole entry): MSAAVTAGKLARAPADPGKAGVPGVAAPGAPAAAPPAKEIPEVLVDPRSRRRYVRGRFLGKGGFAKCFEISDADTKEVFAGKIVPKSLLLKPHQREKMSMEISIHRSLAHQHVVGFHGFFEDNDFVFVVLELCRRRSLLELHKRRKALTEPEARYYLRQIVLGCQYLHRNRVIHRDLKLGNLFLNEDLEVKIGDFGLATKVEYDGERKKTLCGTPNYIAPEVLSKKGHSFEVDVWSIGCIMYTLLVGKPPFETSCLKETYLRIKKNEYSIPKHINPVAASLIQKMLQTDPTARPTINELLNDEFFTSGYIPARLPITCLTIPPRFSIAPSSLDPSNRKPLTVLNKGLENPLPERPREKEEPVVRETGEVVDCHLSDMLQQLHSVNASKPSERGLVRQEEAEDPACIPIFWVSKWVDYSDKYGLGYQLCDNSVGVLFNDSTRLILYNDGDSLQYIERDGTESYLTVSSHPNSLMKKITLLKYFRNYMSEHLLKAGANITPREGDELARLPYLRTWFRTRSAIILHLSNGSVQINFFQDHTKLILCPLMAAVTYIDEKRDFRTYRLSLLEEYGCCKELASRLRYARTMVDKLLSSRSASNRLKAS

Row | SMILES | IC50 [1] [nM] | IC50 (Wee1-like protein kinase) [nM] | bioavailability [2] [%]
1 | CC(C)(O)c1cccc(-n2cc(F)c3cnc(Nc4ccc(N5C[C@H]6C[C@@H]5CN6)cc4)nc32)n1 | 19 | 21 | –
2 | CC(C)(O)c1cccc(-n2cc(F)c3cnc(Nc4ccc(C(=O)NC5CCOCC5)cc4)nc32)n1 | 9 | 45 | –
3 | CN1CCN(c2ccc(Nc3ncc4c(F)cn(-c5cccc(N=S(C)(C)=O)n5)c4n3)cc2)CC1 | 384 | 26 | > 90
4 | CC(C)(O)c1cccc(-n2cc(F)c3cnc(Nc4ccc(N5CCNC6(CC6)C5)cc4)nc32)n1 | 61 | 63 | –
5 | CC(C)(O)c1cccc(-n2cc(F)c3cnc(Nc4ccc(NC(=O)C5CCOCC5)cc4)nc32)n1 | 30 | 52 | –
6 | CN1CCN(c2ccc(Nc3ncc4c(F)cn(-c5cccc(C6(F)COC6)n5)c4n3)cc2)CC1 | 24 | 19 | –
7 | CN1CCC(NC(=O)c2ccc(Nc3ncc4c(F)cn(-c5cccc(C(C)(C)O)n5)c4n3)cc2)CC1 | 29 | 39 | –

Further compounds by falling IC50 [1], results first:

Row | IC50 [1] [nM] | IC50 (Wee1-like protein kinase) [nM] | bioavailability [2] [%] | SMILES
8 | 60 | 52 | – | CC(C)(O)c1cccc(-n2cc(F)c3cnc(Nc4ccc(N5CCNCC5)cc4)nc32)n1
9 | 59 | 33 | – | CN1CCC(NC(=O)c2ccc(Nc3ncc4ccn(-c5cccc(C(C)(C)O)n5)c4n3)cc2)CC1
10 | 39 | 19 | – | CCN1CCC(Oc2ccc(Nc3ncc4c(F)cn(-c5cccc(C(C)(C)O)n5)c4n3)cc2)CC1
11 | 34 | 33 | – | CCN1CCC(NC(=O)c2ccc(Nc3ncc4c(F)cn(-c5cccc(C(C)(C)O)n5)c4n3)cc2)CC1
12 | 30 | 24 | – | CC(C)(O)c1cccc(-n2cc(F)c3cnc(Nc4ccc(N5C[C@@H]6C[C@H]5CN6)cc4)nc32)n1
